From ChEMBL document CHEMBL1201862, “PubChem BioAssay data set” (2004)
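The compound was tested at five concentrations on cells cultured in 96-well plates, with a 48-hour exposure period. GI50 marks 50% less growth.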 Active and inactive are the calls of the source. Rule as the data show it: active = GI50 up to about 1.1 µM and inactive = higher.

What was measured:
Assay in all cases: DTP human tumour cell line panel, 48 h
[1] = test system: NCI-H23
[2] = test system: HCT-116
[3] = test system: MOLT-4
[4] = test system: SNB-75
[5] = test system: SW-620
[6] = test system: SK-MEL-28
[7] = test system: SF-295
[8] = test system: NCI-H226
[9] = test system: M19-MEL
[10] = test system: U-251
[11] = test system: SNB-19
[12] = test system: UO-31
[13] = test system: OVCAR-5
[14] = test system: M14
[15] = test system: RXF 393
[16] = test system: MDA-MB-435
[17] = test system: BT-549
[18] = test system: Hs-578T
[19] = test system: T47D
[20] = test system: MCF7

Measured: GI50

CC(=O)Nc1ccc(/C=C(\NC(=O)c2ccccc2)c2nc3ccc4c(c3[nH]2)C(=O)c2ccccc2C4=O)cc1
inactive: [1] 21.6 µM | [2] 12.2 µM | [3] 2.88 µM | [4] 9.51 µM | [5] 18.9 µM | [6] 45 µM | [7] 22.6 µM | [8] > 100 µM | [9] 78.3 µM | [10] 16.4 µM | [11] 35.2 µM | [12] 1.59 µM | [13] > 100 µM | [14] 43.1 µM | [15] 4.66 µM

COc1ccc(NC(=O)CSc2nnc(-c3ccc(NC(C)=O)cc3)o2)cc1
inactive: [1] 10.7 µM | [2] 14.6 µM | [3] 17.4 µM | [4] 63.1 µM | [6] 18.7 µM | [7] 15.3 µM | [8] 24.3 µM | [9] 21 µM | [10] 15.7 µM | [12] 17.7 µM | [13] 14.4 µM | [14] 17 µM | [15] 14.5 µM

O=C1CC2C=CC1C2CO (stereo not given)
inactive: [2] > 100 µM | [3] > 100 µM | [4] > 100 µM | [5] > 100 µM | [6] > 100 µM | [7] > 100 µM | [8] > 100 µM | [9] > 100 µM | [10] > 100 µM | [11] > 100 µM | [12] > 100 µM | [13] > 100 µM | [14] > 100 µM | [15] > 100 µM

CCCCCCCCCCCCCCC1OC(=O)c2ccccc21 (stereo not given)
inactive: [1] 43.8 µM | [2] 34.6 µM | [3] 36.7 µM | [4] > 100 µM | [5] 63.4 µM | [6] > 100 µM | [7] > 100 µM | [8] 53.3 µM | [9] 85.7 µM | [10] > 100 µM | [11] > 100 µM | [12] > 100 µM | [13] 31.7 µM | [14] > 100 µM | [15] 52 µM

COc1ccc(-c2ccccc2)c2[nH]c3c(c12)CCNC3=O
inactive: [1] > 100 µM | [2] > 100 µM | [3] > 100 µM | [4] > 100 µM | [5] > 100 µM | [7] > 100 µM | [8] > 100 µM | [9] > 100 µM | [10] > 100 µM | [11] > 100 µM | [12] > 100 µM | [13] > 100 µM | [14] > 100 µM | [15] 45.6 µM

COc1cc2c(cc1O)[C@H](C)C(c1ccc(OC)c(OC)c1)O2 (stereo not given in full)
inactive: [1] 10.6 µM | [2] 3.6 µM | [3] 6.41 µM | [4] 1.95 µM | [5] 4.2 µM | [6] 9.75 µM | [7] 6.56 µM | [8] 12.4 µM | [9] 4.18 µM | [10] 5.87 µM | [11] 1.68 µM | [12] 5.69 µM | [13] 45.6 µM | [14] 4.68 µM | [15] 11.7 µM

COc1ccccc1CCc1cc(OC)c(OC)c(OC)c1
inactive: [2] 37.1 µM | [3] 23.9 µM | [4] 41.6 µM | [5] 47.5 µM | [6] 65.6 µM | [7] 51.4 µM | [8] 39.8 µM | [9] 48.3 µM | [10] 40.4 µM | [11] 75.9 µM | [12] 22.9 µM | [13] 1.56 µM | [14] 47.6 µM | [15] 20.9 µM

Cc1cc2c(cc1C)[n+]([O-])c(C(=O)/C=C/c1ccccc1[N+](=O)[O-])c(C)[n+]2[O-]
inactive: [1] 48.5 µM | [2] 70.8 µM | [3] > 100 µM | [4] 11.1 µM | [5] > 100 µM | [16] > 100 µM | [17] > 81.8 µM | [6] 71.4 µM | [7] 36.3 µM | [18] 39.3 µM | [19] > 77.3 µM | [8] 67.5 µM | [9] > 80 µM | [20] > 46.5 µM | [10] 32.1 µM | [11] 30.3 µM | [12] 99.5 µM | [13] > 100 µM | [14] 74.6 µM | [15] 37.4 µM

CCc1ccccc1NC(=O)C(=O)C1C(=O)N(c2ccccc2)N=C1N (stereo not given)
inactive: [1] > 100 µM | [2] > 100 µM | [3] 8.3 µM | [4] > 100 µM | [5] > 100 µM | [6] > 100 µM | [7] > 100 µM | [8] > 100 µM | [9] > 100 µM | [10] > 100 µM | [11] > 100 µM | [12] > 100 µM | [13] > 100 µM | [14] > 100 µM | [15] > 100 µM
